Experimental findings from paper PMC9311641, “Antitubercular, Cytotoxicity, and Computational Target Validation of Dihydroquinazolinone Derivatives” (Antibiotics, 2022) are described below.

The term MIC denotes the smallest concentration in the dilution series that meets the test's criterion for growth inhibition.

Format in all cases: cell-based
The nature of one data set: MTT cytotoxicity assay. Conditions: mean ± SD of three replicates. As for the experimental part: (§1) Fibroblast cells were cultured in Iscove’s Modified Dulbecco’s Medium (Euro Clone, Italy) as recommended by ATCC. The media was supplemented with 10% heat-inactivated fetal bovine serum (FBS) (Ebsdorfergrund, Germany), 1% of 2 mM L-glutamine, 100 U/mL penicillin, and 100 µg/mL streptomycin. According to the cells’ growth profile, fibroblast-seeding density was 1 × 10^5 cell/well. Cell viability was determined by trypan blue exclusion using a hemocytometer.
(§2) The MTT colorimetric assay was used to assess the effect of the synthesized compounds on the viability of the fibroblast cell lines. […] A volume of 10 mL of the culture media was added, and the cell suspension was centrifuged at 1000 rpm for 10 min. The pellets were resuspended in a 10 mL medium to make a single-cell suspension. […] The cell suspension was diluted to give the optimal seeding density, and 100 µL of the cell suspension was plated in a 96-well plate. Cells were cultured at 37 °C in a humidified atmosphere of 5% CO2. After 24 h incubation, the cells were treated with 100 µM of the synthesized compounds (diluted in culture media to yield the required concentration) and then incubated for 72 h. At the end of the exposure time, 15 µL of MTT stock solution (5 mg/mL in sterile PBS, pH 7.4) (Promega, Madison, WI, USA) was added to each well and incubated for 3 h. After that, 100 µL of solubilizing stop solution was added to each well to solubilize the dark violet formazan crystals. The optical densities at 570 nm were then measured using a micro-plate reader (Biotek, Winooski, VT, USA), and the percentage of cell viability was calculated with respect to a control corresponding to untreated cells.
A general note: Tetrazolium dyes change colour on reduction, which living cells bring about.

Data set [1] has as its system Mycobacterium tuberculosis H37Rv (ATCC 25177). Description: Whole-cell anti-TB MIC, Resazurin Microplate Assay (REMA). As to conditions: MTB H37Rv; for MIC: Mycobacterium tuberculosis, REMA, read-out: Level of Activity (MIC), Susceptible (H37Rv). (In general: Resazurin is reduced to fluorescent resorufin, in cell work by metabolically active cells.)
For data set [2], the system named is MDR strains of Mycobacterium tuberculosis. The data set is described as above. Conditions: for MIC: Mycobacterium tuberculosis, read-out: Level of Activity (MIC), MDR; for Level of Activity (MIC), MDR: MDR MTB strains, REMA.
The test system of data set [3] is normal human skin fibroblast cells (CCD-1064SK). Description: MTT cytotoxicity assay. Conditions: 72 h, mean ± SD of three replicates. How it is done:
as §1, §2

Where [4] appears, read: human, CCD-1064SK normal human skin fibroblast cells.

In brackets after ≈: the same amount, converted by molar mass. Several values for one entry are separate records, joined by “and”; a condition that tells them apart may be missing. Equal entries are not always repeated. Some results are limits rather than exact numbers.

Turning to `COc1ccc(C2NC(=O)c3ccccc3N2)cc1` (centres unmarked) [Compound 3a], the cytotoxicity at 72 h, 100 µM in “MTT cytotoxicity assay” (normal human fibroblast cells) is 28.8 ± 0.6%. The MIC was 64 µg/mL (≈ 252 µM) in data set [1] and greater than 128 µg/mL in data set [2].
`N#Cc1ccc(C2NC(=O)c3ccccc3N2)cc1` (centres unmarked) [Compound 3b] registered a cytotoxicity at 72 h, 100 µM in the data set “MTT cytotoxicity assay” (setting [4]) of 19.5 ± 5%. Moreover, in data set [1], the MIC is greater than 64 µg/mL. In addition, in data set [2], the “Level of Activity (MIC), MDR” value is given as “No activity”.
As to `O=C1NC(c2cccc(O)c2)Nc2ccccc21` (centres unmarked) [Compound 3c], in “MTT cytotoxicity assay” (setting [4]), the cytotoxicity at 72 h, 100 µM was 58.5 ± 1.1%. Also, the figures for the minimum inhibitory concentration (MIC) in data set [1] and in data set [2] were 8 µg/mL (≈ 33.3 µM) and greater than 32 µg/mL, respectively.
Turning to `O=C1NC(c2ccc(OC(F)(F)F)cc2)Nc2ccccc21` (centres unmarked) [Compound 3d], in the data set “MTT cytotoxicity assay” (setting [4]), the cytotoxicity at 72 h, 100 µM was found to be 47.6 ± 1.6%. In addition, the MIC in data set [1] is greater than 64 µg/mL. Further, the “Level of Activity (MIC), MDR” value in data set [2] is given as “No activity”.
The matching figures for `O=C1NC(c2cccc(I)c2)Nc2ccccc21` (centres unmarked) [Compound 3e]: 72 ± 8.3%, 128 µg/mL (≈ 366 µM) and “No activity”.
`O=C1NC(c2ccc(Cl)cc2)Nc2ccccc21` (centres unmarked) [Compound 3f] had a cytotoxicity at 72 h, 100 µM in “MTT cytotoxicity assay” (setting [4]) of 57.6 ± 3.7%. Besides, the minimum inhibitory concentration (MIC) in data set [1] was greater than 128 µg/mL. The “Level of Activity (MIC), MDR” value in data set [2] was “No activity”.
In “MTT cytotoxicity assay” (setting [4]), `COc1ccc(C2NC(=O)c3ccccc3N2)cc1OC` (centres unmarked) [Compound 3g] showed a cytotoxicity at 72 h, 100 µM of 32.5 ± 11%. In addition, the minimum inhibitory concentration (MIC) in data set [1] worked out at 64 µg/mL (≈ 225 µM). In addition, the “Level of Activity (MIC), MDR” value in data set [2] is “No activity”.
The matching figures for `CN(C)c1ccc(C2NC(=O)c3ccccc3N2)cc1` (centres unmarked) [Compound 3h]: 54.6 ± 2.8%, greater than 128 µg/mL and “No activity”.
In “MTT cytotoxicity assay” (setting [4]), `O=C1NC(c2cccc([N+](=O)[O-])c2)Nc2ccccc21` (centres unmarked) [Compound 3i] came in with a cytotoxicity at 72 h, 100 µM of 24.1 ± 3.9%. The MIC in data set [1] was greater than 64 µg/mL. Moreover, the “Level of Activity (MIC), MDR” value in data set [2] was “No activity”.
On the same counts, the results for `O=C1NC(c2ccc(F)cc2)Nc2ccccc21` (centres unmarked) [Compound 3j] are 44.1 ± 11.5%, greater than 64 µg/mL and “No activity”.
In the case of `O=C1NC(c2c[nH]cn2)Nc2ccccc21` (centres unmarked) [Compound 3k], the cytotoxicity at 72 h, 100 µM in the data set “MTT cytotoxicity assay” (normal human fibroblast cells) was 19.2 ± 4.9%. Moreover, in data set [1], the MIC against susceptible H37Rv M. tuberculosis strain is 4 µg/mL (≈ 18.7 µM) and the MIC came out at 4 µg/mL (≈ 18.7 µM). Also, the MIC in data set [2] turned out to be 16 µg/mL (≈ 74.7 µM).
In “MTT cytotoxicity assay” (setting [4]), `O=C1NC(c2cc(Br)ccc2F)Nc2ccccc21` (centres unmarked) [Compound 3l, 2-(5-bromo-2-fluorophenyl)-2,3-dihydroquinazolin-4(1H)-one] had a cytotoxicity at 72 h, 100 µM of 36%. Also, in data set [3], the “Cytotoxicity (%) at 100 µM” value amounted to 36.3 ± 4.2%. In data set [1], the MIC against susceptible H37Rv M. tuberculosis strain is 2 µg/mL (≈ 6.23 µM) and the MIC is 2 µg/mL (≈ 6.23 µM). Further, in data set [2], the MIC was greater than 64 µg/mL.
Compound `COc1cc([N+](=O)[O-])ccc1C1NC(=O)c2ccccc2N1` (centres unmarked) [Compound 3m] had a cytotoxicity at 72 h, 100 µM in “MTT cytotoxicity assay” (setting [4]) of 31%. In addition, in data set [3], the “Cytotoxicity (%) at 100 µM” value is 30% and 30.9 ± 8.8%. For the same compound, in data set [1], the MIC against susceptible H37Rv M. tuberculosis strain stood at 2 µg/mL (≈ 6.68 µM) and the MIC came to 2 µg/mL (≈ 6.68 µM). The MIC in data set [2] was greater than 64 µg/mL.
